Measurements taken from patent US20210045385A1, “PYRIDAZINONE-SUBSTITUTED KETOXIMES AS HERBICIDES” (FMC Corporation, priority 2018, published 2021).

What was measured:
Format in all cases: in vivo
[1] = tested on: foxtail, giant (giant foxtail, Setaria faberi); experiment: Test C preemergence, visual plant response rating
Outline: (§1)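 Seeds sown in a loam–sand blend got a directed preemergence soil spray; postemergence plants (2–10 cm, one- to two-leaf stage) were sprayed with compound in a non-phytotoxic solvent plus surfactant. Injury was scored visually against untreated controls after about 10 d in a greenhouse on a 0–100 scale (100 = complete control).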

[2] = tested on: barnyardgrass (Echinochloa crus-galli); experiment: Test C preemergence, visual plant response rating
Outline: as §1

[3] = tested on: Italian ryegrass (Lolium mutiflorum); experiment: Test C preemergence, visual plant response rating
Outline: as §1

[4] = tested on: kochia (Bassia scoparia); experiment: Test C preemergence, visual plant response rating
Outline: as §1

[5] = tested on: pigweed (Amaranthus retroflexus); experiment: Test C preemergence, visual plant response rating
Outline: as §1

[6] = tested on: ragweed (common ragweed, Ambrosia artemisiifolia); experiment: Test C preemergence, visual plant response rating
Outline: as §1

[7] = tested on: wheat (Triticum aestivum); experiment: Test C postemergence, visual plant response rating
Outline: as §1

[8] = tested on: foxtail, giant (giant foxtail, Setaria faberi); experiment: Test C postemergence, visual plant response rating
Outline: as §1

[9] = tested on: barnyardgrass (Echinochloa crus-galli); experiment: Test C postemergence, visual plant response rating
Outline: as §1

[10] = tested on: corn (Zea mays); experiment: Test C postemergence, visual plant response rating
Outline: as §1

[11] = tested on: blackgrass (Alopecurus myosuroides); experiment: Test C postemergence, visual plant response rating
Outline: as §1

[12] = tested on: Italian ryegrass (Lolium mutiflorum); experiment: Test C postemergence, visual plant response rating
Outline: as §1

[13] = tested on: kochia (Bassia scoparia); experiment: Test C postemergence, visual plant response rating
Outline: as §1

[14] = tested on: galium (catchweed bedstraw, Galium aparine); experiment: Test C postemergence, visual plant response rating
Outline: as §1

[15] = tested on: pigweed (Amaranthus retroflexus); experiment: Test C postemergence, visual plant response rating
Outline: as §1

[16] = tested on: ragweed (common ragweed, Ambrosia artemisiifolia); experiment: Test C postemergence, visual plant response rating
Outline: as §1

[17] = tested on: duck salad (Heteranthera limosa); experiment: Test D flooded paddy test, visual plant response rating; conditions: 250 g ai/ha, scale 0 to 100 (0 no effect, 100 complete control), 13 to 15 d
Outline: (§2)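 Plants grown to the 2-leaf stage; pots flooded to 3 cm above soil and compound applied directly into paddy water, depth held throughout. Kept in greenhouse 13 to 15 d, then rated visually against untreated controls on a 0–100 scale (0 no effect, 100 complete control).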

[18] = tested on: barnyardgrass (Echinochloa crus-galli); experiment: as above; conditions: 250 g ai/ha, scale 0 to 100 (0 no effect, 100 complete control), 13 to 15 d
Outline: as §2

[19] = tested on: sedge umbrella (small-flower umbrella sedge, Cyperus difformis); experiment: as above; conditions: 250 g ai/ha, scale 0 to 100 (0 no effect, 100 complete control), 13 to 15 d
Outline: as §2

[20] = tested on: rice (Oryza sativa); experiment: as above; conditions: 250 g ai/ha, scale 0 to 100 (0 no effect, 100 complete control), 13 to 15 d
Outline: as §2

[21] = Test C, 31 g ai/ha, 0 is no effect, 100 is complete control
[22] = Test C, postemergence, 125 g ai/ha
[23] = Test C, postemergence, 31 g ai/ha

SMILES	Foxtail, Giant plant response rating (0 to 100 scale) ([1]; 125 g ai/ha)	Foxtail, Giant plant response rating (0 to 100 scale) [1, 21]	Barnyardgrass plant response rating (0 to 100 scale) ([2]; 125 g ai/ha)	Barnyardgrass plant response rating (0 to 100 scale) [2, 21]	Ryegrass, Italian plant response rating (0 to 100 scale) ([3]; 125 g ai/ha)	Ryegrass, Italian plant response rating (0 to 100 scale) [3, 21]	Kochia plant response rating (0 to 100 scale) ([4]; 125 g ai/ha)	Kochia plant response rating (0 to 100 scale) [4, 21]	Pigweed plant response rating (0 to 100 scale) ([5]; 125 g ai/ha)	Pigweed plant response rating (0 to 100 scale) [5, 21]	Ragweed plant response rating (0 to 100 scale) ([6]; 125 g ai/ha)	Ragweed plant response rating (0 to 100 scale) [6, 21]	Wheat plant response rating (0 to 100 scale) ([7]; Postemergence, 31 g ai/ha)	Wheat plant response rating (0 to 100 scale) [7, 22]	Foxtail, Giant plant response rating (0 to 100 scale) [8, 22]	Barnyardgrass plant response rating (0 to 100 scale) [9, 22]	Corn plant response rating (0 to 100 scale) [10, 22]	Blackgrass plant response rating (0 to 100 scale) [11, 22]	Ryegrass, Italian plant response rating (0 to 100 scale) ([12]; Postemergence, 31 g ai/ha)	Ryegrass, Italian plant response rating (0 to 100 scale) [12, 22]	other results
CO/N=C(\c1cc(Cl)cc(Br)c1)c1c(O)c(C)nn(C)c1=O [Compound 157]	100	80	90	70	100	90	100	50	40	10	100	100	0	60	90	80	30	20	70	100	Foxtail, Giant plant response rating (0 to 100 scale) [8, 23]: 60; Barnyardgrass plant response rating (0 to 100 scale) [9, 23]: 30; Corn plant response rating (0 to 100 scale) [10, 23]: 10; Blackgrass plant response rating (0 to 100 scale) [11, 23]: 10; Kochia plant response rating (0 to 100 scale) [13, 23]: 80; Kochia plant response rating (0 to 100 scale) [13, 22]: 100; Galium plant response rating (0 to 100 scale) [14, 23]: 90; Galium plant response rating (0 to 100 scale) [14, 22]: 100; Pigweed plant response rating (0 to 100 scale) ([15]; Postemergence, 31 g ai/ha): 20; Pigweed plant response rating (0 to 100 scale) [15, 22]: 60; Ragweed plant response rating (0 to 100 scale) ([16]; Postemergence, 31 g ai/ha): 70; Ragweed plant response rating (0 to 100 scale) [16, 22]: 100; Plant response rating, Ducksalad (Flood) [17]: 0; Plant response rating, Barnyardgrass (Flood) [18]: 0; Plant response rating, Sedge, Umbrella (Flood) [19]: 0; Plant response rating, Rice (Flood) [20]: 0
Cc1nn(C)c(=O)c(/C(=N/OCc2ccccc2)c2ccc(F)c3ccccc23)c1O [Compound 158]	80	10	30	20	0	0	0	0	50	0	40	40	0	0	70	70	10	10	0	20	Foxtail, Giant plant response rating (0 to 100 scale) [8, 23]: 30; Barnyardgrass plant response rating (0 to 100 scale) [9, 23]: 50; Corn plant response rating (0 to 100 scale) [10, 23]: 0; Blackgrass plant response rating (0 to 100 scale) [11, 23]: 0; Kochia plant response rating (0 to 100 scale) [13, 23]: 0; Kochia plant response rating (0 to 100 scale) [13, 22]: 0; Galium plant response rating (0 to 100 scale) [14, 23]: 90; Galium plant response rating (0 to 100 scale) [14, 22]: 0; Pigweed plant response rating (0 to 100 scale) ([15]; Postemergence, 31 g ai/ha): 50; Pigweed plant response rating (0 to 100 scale) [15, 22]: 50; Ragweed plant response rating (0 to 100 scale) ([16]; Postemergence, 31 g ai/ha): 40; Ragweed plant response rating (0 to 100 scale) [16, 22]: 60; Plant response rating, Ducksalad (Flood) [17]: 50; Plant response rating, Barnyardgrass (Flood) [18]: 45; Plant response rating, Sedge, Umbrella (Flood) [19]: 65; Plant response rating, Rice (Flood) [20]: 15
CO/N=C(/c1c(O)c(C)nn(C)c1=O)c1cccc2cc(Cl)ccc12 [Compound 159]	50	0	40	40	80	0	20	0	40	30	90	70	0	10	70	60	30	30	20	80	Foxtail, Giant plant response rating (0 to 100 scale) ([8]; Postemergence, 31 g ai/ha): 50; Barnyardgrass plant response rating (0 to 100 scale) ([9]; Postemergence, 31 g ai/ha): 40; Corn plant response rating (0 to 100 scale) ([10]; Postemergence, 31 g ai/ha): 10; Blackgrass plant response rating (0 to 100 scale) ([11]; Postemergence, 31 g ai/ha): 10; Kochia plant response rating (0 to 100 scale) ([13]; Postemergence, 31 g ai/ha): 70; Kochia plant response rating (0 to 100 scale) [13, 22]: 80; Galium plant response rating (0 to 100 scale) ([14]; Postemergence, 31 g ai/ha): 60; Galium plant response rating (0 to 100 scale) [14, 22]: 80; Pigweed plant response rating (0 to 100 scale) ([15]; Postemergence, 31 g ai/ha): 90; Pigweed plant response rating (0 to 100 scale) [15, 22]: 100; Ragweed plant response rating (0 to 100 scale) ([16]; Postemergence, 31 g ai/ha): 70; Ragweed plant response rating (0 to 100 scale) [16, 22]: 90; Plant response rating, Ducksalad (Flood) [17]: 0; Plant response rating, Barnyardgrass (Flood) [18]: 0; Plant response rating, Sedge, Umbrella (Flood) [19]: 0; Plant response rating, Rice (Flood) [20]: 0
C#CCO/N=C(/c1ccc(F)c(Br)c1)c1c(O)c(C)nn(C)c1=O [Compound 163]	50	10	30	0	100	70	50	0	50	30	0	0	60	80	70	50	30	60	50	90	Foxtail, Giant plant response rating (0 to 100 scale) ([8]; Postemergence, 31 g ai/ha): 20; Barnyardgrass plant response rating (0 to 100 scale) ([9]; Postemergence, 31 g ai/ha): 20; Corn plant response rating (0 to 100 scale) ([10]; Postemergence, 31 g ai/ha): 0; Blackgrass plant response rating (0 to 100 scale) ([11]; Postemergence, 31 g ai/ha): 20; Kochia plant response rating (0 to 100 scale) ([13]; Postemergence, 31 g ai/ha): 30; Kochia plant response rating (0 to 100 scale) [13, 22]: 50; Galium plant response rating (0 to 100 scale) ([14]; Postemergence, 31 g ai/ha): 70; Galium plant response rating (0 to 100 scale) [14, 22]: 90; Pigweed plant response rating (0 to 100 scale) ([15]; Postemergence, 31 g ai/ha): 40; Pigweed plant response rating (0 to 100 scale) [15, 22]: 70; Ragweed plant response rating (0 to 100 scale) ([16]; Postemergence, 31 g ai/ha): 30; Ragweed plant response rating (0 to 100 scale) [16, 22]: 60; Plant response rating, Ducksalad (Flood) [17]: 0; Plant response rating, Barnyardgrass (Flood) [18]: 0; Plant response rating, Sedge, Umbrella (Flood) [19]: 0; Plant response rating, Rice (Flood) [20]: 0
